Experimental data from PubChem BioAssay (NCI).
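Grown in 96-well plates, cells were treated for 48 hours with each compound at five concentrations. Insufficient inhibition: endpoint recorded as highest concentration tested. Here, GI50 denotes the concentration required for 50% inhibition of growth. The concentration for full growth arrest is given as TGI.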

What was measured:
Assay in all cases: growth of human tumour cells (NCI), 48 h
KM12 colon = test system: KM12 colon
A498 renal = test system: A498 renal
SF-268 CNS = test system: SF-268 CNS
SNB-19 CNS = test system: SNB-19 CNS
RPMI-8226 leukemia = test system: RPMI-8226 leukemia
MDA-MB-231 breast = test system: MDA-MB-231 breast
HCT-116 colon = test system: HCT-116 colon
NCI-H460 lung = test system: NCI-H460 lung
K-562 leukemia = test system: K-562 leukemia
HS 578T breast = test system: HS 578T breast
COLO 205 colon = test system: COLO 205 colon
HT29 colon = test system: HT29 colon
SNB-75 CNS = test system: SNB-75 CNS
HL-60(TB) leukemia = test system: HL-60(TB) leukemia
A549 NSCLC = test system: A549 NSCLC
SK-MEL-2 melanoma = test system: SK-MEL-2 melanoma
OVCAR-5 ovarian = test system: OVCAR-5 ovarian
MALME-3M melanoma = test system: MALME-3M melanoma
HCT-15 colon = test system: HCT-15 colon
CCRF-CEM leukemia = test system: CCRF-CEM leukemia
SF-295 CNS = test system: SF-295 CNS
HOP-92 NSCLC = test system: HOP-92 NSCLC
MOLT-4 leukemia = test system: MOLT-4 leukemia
MCF7 breast = test system: MCF7 breast
PC-3 prostate = test system: PC-3 prostate
SK-MEL-5 melanoma = test system: SK-MEL-5 melanoma
NCI-H226 lung = test system: NCI-H226 lung
IGROV1 ovarian = test system: IGROV1 ovarian
NCI-H23 lung = test system: NCI-H23 lung
T-47D breast = test system: T-47D breast
HOP-62 NSCLC = test system: HOP-62 NSCLC
OVCAR-3 ovarian = test system: OVCAR-3 ovarian
OVCAR-4 ovarian = test system: OVCAR-4 ovarian
U251 CNS = test system: U251 CNS
MDA-MB-435 = test system: MDA-MB-435
NCI/ADR-RES ovarian = test system: NCI/ADR-RES ovarian
SK-OV-3 ovarian = test system: SK-OV-3 ovarian
BT-549 breast = test system: BT-549 breast
NCI-H522 lung = test system: NCI-H522 lung
SN12C renal = test system: SN12C renal
HCC-2998 colon = test system: HCC-2998 colon
LOX IMVI melanoma = test system: LOX IMVI melanoma
TK-10 renal = test system: TK-10 renal
SW-620 colon = test system: SW-620 colon
UACC-62 melanoma = test system: UACC-62 melanoma
M14 melanoma = test system: M14 melanoma
EKVX NSCLC = test system: EKVX NSCLC
ACHN renal = test system: ACHN renal
SR leukemia = test system: SR leukemia
786-0 renal = test system: 786-0 renal
DU-145 prostate = test system: DU-145 prostate
RXF 393 renal = test system: RXF 393 renal
CAKI-1 renal = test system: CAKI-1 renal
UACC-257 melanoma = test system: UACC-257 melanoma
SF-539 CNS = test system: SF-539 CNS
UO-31 renal = test system: UO-31 renal
SK-MEL-28 melanoma = test system: SK-MEL-28 melanoma
OVCAR-8 ovarian = test system: OVCAR-8 ovarian

## O=[N+]([O-])c1ccc(-c2ccccc2)c([As](=O)(O)O)c1
KM12 colon
  GI50: 39.4 µM
  TGI: > 100 µM
A498 renal
  GI50: 16.5 µM
  TGI: 67 µM
SF-268 CNS
  GI50: 9.85 µM
  TGI: 39.2 µM
SNB-19 CNS
  GI50: 18.7 µM
  TGI: > 100 µM
RPMI-8226 leukemia
  GI50: 15.2 µM
  TGI: 62.9 µM
MDA-MB-231 breast
  GI50: 10 µM
  TGI: 37.4 µM
HCT-116 colon
  GI50: 10.9 µM
  TGI: 25.4 µM
NCI-H460 lung
  GI50: 28 µM
  TGI: > 100 µM
K-562 leukemia
  GI50: 4.89 µM
  TGI: > 100 µM
HS 578T breast
  GI50: 0.798 µM
  TGI: 18.4 µM
COLO 205 colon
  GI50: 12.8 µM
  TGI: 27.4 µM
HT29 colon
  GI50: 13.5 µM
  TGI: 32.2 µM
SNB-75 CNS
  GI50: 15.1 µM
  TGI: > 100 µM
HL-60(TB) leukemia
  GI50: 43.5 µM
  TGI: > 100 µM
A549 NSCLC
  GI50: 27.2 µM
  TGI: > 100 µM
SK-MEL-2 melanoma
  GI50: 28.2 µM
  TGI: 62.8 µM
OVCAR-5 ovarian
  GI50: 28.4 µM
  TGI: > 100 µM
MALME-3M melanoma
  GI50: 11.6 µM
  TGI: 34.6 µM
HCT-15 colon
  GI50: 9.3 µM
  TGI: 41.2 µM
CCRF-CEM leukemia
  GI50: 4.42 µM
  TGI: 39.9 µM
SF-295 CNS
  GI50: 22.3 µM
  TGI: > 100 µM
HOP-92 NSCLC
  GI50: 13.5 µM
  TGI: 95.4 µM
MOLT-4 leukemia
  GI50: 19.9 µM
  TGI: > 100 µM
MCF7 breast
  GI50: 3.75 µM
  TGI: 16.1 µM
PC-3 prostate
  GI50: 16.1 µM
  TGI: > 100 µM
SK-MEL-5 melanoma
  GI50: 40.6 µM
  TGI: > 100 µM
NCI-H226 lung
  GI50: 18.5 µM
  TGI: 69.4 µM
IGROV1 ovarian
  GI50: 8.35 µM
  TGI: 27.8 µM
NCI-H23 lung
  GI50: 18.9 µM
  TGI: 88.2 µM
T-47D breast
  GI50: 4.35 µM
  TGI: 49.5 µM
HOP-62 NSCLC
  GI50: 3.11 µM
  TGI: 18 µM
OVCAR-3 ovarian
  GI50: 10.4 µM
  TGI: 29.3 µM
OVCAR-4 ovarian
  GI50: 14.6 µM
  TGI: 52 µM
U251 CNS
  GI50: 3.08 µM
  TGI: 23.9 µM
MDA-MB-435
  GI50: 21.9 µM
  TGI: > 100 µM
NCI/ADR-RES ovarian
  GI50: 22.6 µM
  TGI: > 100 µM
SK-OV-3 ovarian
  GI50: 24.2 µM
  TGI: 91.5 µM
BT-549 breast
  GI50: 47.2 µM
  TGI: > 100 µM
NCI-H522 lung
  GI50: 6.92 µM
  TGI: 21.3 µM
SN12C renal
  GI50: 12.7 µM
  TGI: > 100 µM
HCC-2998 colon
  GI50: 19.4 µM
  TGI: 45.5 µM
LOX IMVI melanoma
  GI50: 8.15 µM
  TGI: 46.9 µM
TK-10 renal
  GI50: 17.5 µM
  TGI: 38.5 µM
SW-620 colon
  GI50: 7.82 µM
  TGI: 24.4 µM
UACC-62 melanoma
  GI50: 22.5 µM
  TGI: > 100 µM
M14 melanoma
  GI50: 26.6 µM
  TGI: > 100 µM
EKVX NSCLC
  GI50: 15.9 µM
  TGI: > 100 µM
ACHN renal
  GI50: 13.7 µM
  TGI: 30.1 µM
SR leukemia
  GI50: 10.3 µM
  TGI: 57.3 µM
786-0 renal
  GI50: 17.7 µM
  TGI: 36.4 µM
DU-145 prostate
  GI50: 11.3 µM
  TGI: 29 µM
RXF 393 renal
  GI50: 10.7 µM
  TGI: 23.2 µM
CAKI-1 renal
  GI50: 13.2 µM
  TGI: 98.1 µM
UACC-257 melanoma
  GI50: 21.7 µM
  TGI: > 100 µM
SF-539 CNS
  GI50: 13 µM
  TGI: 44.6 µM
UO-31 renal
  GI50: 12.3 µM
  TGI: 44.8 µM
SK-MEL-28 melanoma
  GI50: 18 µM
  TGI: 50.3 µM
OVCAR-8 ovarian
  GI50: 22.6 µM
  TGI: > 100 µM
